Test results: ChEMBL document CHEMBL1123070, “Conformational properties of central nervous system active thyrotropin releasing hormone analogues: probing structure-activity relationships at the molecular level” (1985)

organism: Mus musculus; experiment: Relative CNS activity against reserpine hypothermia in mice relatived to TRH; format: functional, Central nervous system

| Compound | Relative activity |
| --- | --- |
| NC(=O)[C@H]1CCCN1C(=O)[C@H](Cc1c[nH]cn1)NC(=O)c1nc(O)nc(O)c1Br | 0.7 |
| CCc1c(O)nc(O)nc1C(=O)N[C@@H](Cc1c[nH]cn1)C(=O)N1CCC[C@@H]1C(N)=O | 0.09 |
| CC1SCC(C(=O)N[C@@H](Cc2c[nH]cn2)C(=O)N2CCC[C@@H]2C(N)=O)NC1=O (stereo partly specified) | 83 |
| CCCc1c(O)nc(O)nc1C(=O)N[C@@H](Cc1c[nH]cn1)C(=O)N1CCC[C@@H]1C(N)=O | 0.8 |
| C[C@@H]1SCC(C(=O)N[C@@H](Cc2c[nH]cn2)C(=O)N2CCC[C@@H]2C(N)=O)NC1=O (stereo partly specified) | 17 |
| NC(=O)[C@@H]1CCCN1C(=O)[C@@H](Cc1c[nH]cn1)NC(=O)[C@@H]1CSC(=O)N1 | 0.8 |
